Kd data for one substance are collected here from patent US7417050B2 (priority 2002, dated 2008).

The target of the assay is α7 nAChR subtype (Rattus norvegicus, UniProt Q05941). The format is binding. The settings on record: read-out: KD of radioligand.
Sequence of α7 nAChR subtype (Q05941 23-502 limits assumed): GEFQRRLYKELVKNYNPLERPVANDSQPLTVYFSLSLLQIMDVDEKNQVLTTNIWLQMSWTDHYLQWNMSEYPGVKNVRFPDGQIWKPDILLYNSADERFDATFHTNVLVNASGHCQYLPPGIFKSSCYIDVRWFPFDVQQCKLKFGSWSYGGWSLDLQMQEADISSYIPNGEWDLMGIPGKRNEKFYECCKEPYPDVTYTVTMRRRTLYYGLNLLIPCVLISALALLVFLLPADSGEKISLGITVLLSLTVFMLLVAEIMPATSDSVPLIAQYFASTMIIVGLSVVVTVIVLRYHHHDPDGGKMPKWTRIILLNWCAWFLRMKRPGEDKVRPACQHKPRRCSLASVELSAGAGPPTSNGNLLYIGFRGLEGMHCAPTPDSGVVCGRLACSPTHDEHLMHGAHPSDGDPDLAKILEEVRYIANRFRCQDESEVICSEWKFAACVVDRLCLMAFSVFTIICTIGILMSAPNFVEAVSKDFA

In the case of [^125I]-α-Bungarotoxin [[^125I]-α-BTX], the Kd worked out at 1.67 nM.

What is called Kd is the equilibrium constant for the complex coming apart.
